From ChEMBL document CHEMBL2169873, “Binding sites of retinol and retinoic acid with serum albumins” (Eur J Med Chem, 2012)

How the values were obtained:
Format in all cases: ADME
Albumin [1] = biological target: T1, Albumin (Bos taurus, UniProt P02769); assay: Binding affinity to bovine serum albumin random coil at 0.5 mM by circular dichroism analysis; settings: cattle, isolated protein, 500 µM
Albumin [2] = biological target: T1, Albumin; assay: Binding affinity to bovine serum albumin turn (1680 to 1660 cm'-1) at 0.5 mM after 2 hrs by FTIR spectroscopic analysis; settings: cattle, isolated protein, 500 µM
Albumin [3] = biological target: T1, Albumin; assay: Binding affinity to bovine serum albumin beta-sheet (1640 to 1610 cm'-1) at 0.5 mM after 2 hrs by FTIR spectroscopic analysis; settings: cattle, isolated protein, 500 µM
Albumin [4] = biological target: T1, Albumin; assay: Binding affinity to bovine serum albumin by fluorescence quenching assay; settings: cattle, isolated protein
Albumin [5] = biological target: T1, Albumin; assay: Binding affinity to bovine serum albumin beta-sheet at 0.5 mM by circular dichroism analysis; settings: cattle, isolated protein, 500 µM
Albumin [6] = biological target: T1, Albumin; assay: Binding affinity to bovine serum albumin alpha-helix at 0.5 mM by circular dichroism analysis; settings: cattle, isolated protein, 500 µM
Albumin [7] = biological target: T1, Albumin; assay: Binding affinity to bovine serum albumin turn at 0.5 mM by circular dichroism analysis; settings: cattle, isolated protein, 500 µM
Albumin [8] = biological target: T1, Albumin; assay: Binding affinity to bovine serum albumin beta-antiparallel (1692 to 1680 cm'-1) at 0.5 mM after 2 hrs by FTIR spectroscopic analysis; settings: cattle, isolated protein, 500 µM
Albumin [9] = biological target: T1, Albumin; assay: Binding affinity to bovine serum albumin at 0.125 mM after 2 hrs by FTIR spectroscopic analysis; settings: cattle, isolated protein, 125 µM
Albumin [10] = biological target: T1, Albumin; assay: Binding affinity to bovine serum albumin alpha-helix (1660 to 1650 cm'-1) at 0.5 mM after 2 hrs by FTIR spectroscopic analysis; settings: cattle, isolated protein, 500 µM
Albumin [11] = biological target: T1, Albumin; assay: Binding affinity to bovine serum albumin random coil (1648 to 1641 cm'-1) at 0.5 mM after 2 hrs by FTIR spectroscopic analysis; settings: cattle, isolated protein, 500 µM
Albumin [12] = biological target: T1, Albumin; assay: Binding affinity to bovine serum albumin by fluorescence spectroscopy analysis; settings: cattle, isolated protein
Albumin [13] = biological target: T1, Albumin; assay: Binding affinity to bovine serum albumin beta-antiparallel (1692 to 1680 cm'-1) at 0.1 mM after 2 hrs by FTIR spectroscopic analysis; settings: cattle, isolated protein, 100 µM
Albumin [14] = biological target: T1, Albumin; assay: Binding affinity to bovine serum albumin turn (1680 to 1660 cm'-1) at 0.1 mM after 2 hrs by FTIR spectroscopic analysis; settings: cattle, isolated protein, 100 µM
Albumin [15] = biological target: T1, Albumin; assay: Binding affinity to bovine serum albumin random coil (1648 to 1641 cm'-1) at 0.1 mM after 2 hrs by FTIR spectroscopic analysis; settings: cattle, isolated protein, 100 µM
Albumin [16] = biological target: T1, Albumin; assay: Binding affinity to bovine serum albumin alpha-helix (1660 to 1650 cm'-1) at 0.1 mM after 2 hrs by FTIR spectroscopic analysis; settings: cattle, isolated protein, 100 µM
Albumin [17] = biological target: T1, Albumin; assay: Binding affinity to bovine serum albumin beta-sheet (1640 to 1610 cm'-1) at 0.1 mM after 2 hrs by FTIR spectroscopic analysis; settings: cattle, isolated protein, 100 µM

T1 sequence (P02769 whole entry): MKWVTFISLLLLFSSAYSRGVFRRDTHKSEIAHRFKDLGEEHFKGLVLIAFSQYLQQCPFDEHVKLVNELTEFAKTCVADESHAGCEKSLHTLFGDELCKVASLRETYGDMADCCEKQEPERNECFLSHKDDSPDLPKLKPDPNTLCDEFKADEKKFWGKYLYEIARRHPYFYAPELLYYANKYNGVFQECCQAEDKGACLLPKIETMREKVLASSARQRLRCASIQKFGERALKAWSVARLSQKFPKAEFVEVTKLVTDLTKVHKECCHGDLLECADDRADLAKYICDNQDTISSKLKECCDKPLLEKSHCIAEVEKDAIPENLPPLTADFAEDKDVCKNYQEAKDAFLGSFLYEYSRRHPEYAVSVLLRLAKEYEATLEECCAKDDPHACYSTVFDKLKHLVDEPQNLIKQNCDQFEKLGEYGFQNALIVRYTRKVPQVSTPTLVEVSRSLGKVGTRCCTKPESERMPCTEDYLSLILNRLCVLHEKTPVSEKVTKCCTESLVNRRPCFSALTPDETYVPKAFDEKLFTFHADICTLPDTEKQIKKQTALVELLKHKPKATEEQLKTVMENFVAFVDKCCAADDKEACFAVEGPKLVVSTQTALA

| Activity (Albumin [1]) [%] | Activity (Albumin [2]) [%] | Activity (Albumin [3]) [%] | Kq (Albumin [4]) [×10¹³ /M/sec] | Activity (Albumin [5]) [%] | Activity (Albumin [6]) [%] | Activity (Albumin [7]) [%] | Activity (Albumin [8]) [%] | Activity (Albumin [9]) | Activity (Albumin [10]) [%] | Activity (Albumin [11]) [%] | K (Albumin [12]) [×10⁶ /M] | Activity (Albumin [13]) [%] | Activity (Albumin [14]) [%] | Activity (Albumin [15]) [%] | Activity (Albumin [16]) [%] | Activity (Albumin [17]) [%] | Compound |
| --- | --- | --- | --- | --- | --- | --- | --- | --- | --- | --- | --- | --- | --- | --- | --- | --- | --- |
| 18 | 15 | 19 | 4.5 | 16 | 52 | 14 | 10 | Active | 36 | 20 | 5.3 | – | – | – | – | – | CC1=C(/C=C/C(C)=C/C=C/C(C)=C/CO)C(C)(C)CCC1 [RETINOL] |
| 20 | – | – | 2.5 | 18 | 44 | 18 | – | Active | – | – | 2.3 | 7 | 27 | 25 | 26 | 15 | CC1=C(/C=C/C(C)=C/C=C/C(C)=C/C(=O)O)C(C)(C)CCC1 [TRETINOIN] |
